In the NIST ThermoML archive (doi:10.1016/j.jct.2019.02.003):

Conditions: 84 kPa, Liquid, Pycnometric method

CN(CCO)CCO [N-methyldiethanolamine]
Conditions	mass density [kg/m3]
293.15 K	1041.12
303.15 K	1033.6
313.15 K	1025.83
323.15 K	1017.8
333.15 K	1010.8
343.15 K	1002.76
